Experiments:
[1] = system: Erk phosphorylation; assay: Growth factor (bFGF) stimulated Erk phosphorylation in NIH 3T3 cells; details: Mus musculus, NIH3T3, NIH 3T3 cells, 3 ng/ml bFGF; upper bound of bin
[2] = molecular target: FGFR1 kinase (Homo sapiens, UniProt P11362); assay: Kinase assay (using Caliper technology); assay type: biochemical; details: FGFR1 kinase, Caliper; upper bound of bin; read-out: IC50
Protocol: To determine inhibition of FGFR activity, kinase assays were conducted using Caliper technology.
Kinase activity assays were performed in Greiner 384-well low volume plates, with a total reaction volume of 12ul per well. […] The substrate for each assay was a custom peptide with fluorescent tag (13 amino acids in length) the sequence of which was specific for FGFR1 kinase.
Compounds were serially diluted in 5% (v/v) DMSO, before being added to assay plates.
Assay plates were incubated at room temperature for 1.5 h, before the reaction was stopped with the addition of buffer [comprising: 100 mM HEPES—pH7.5, 0.033% Brij-35, 0.22% Caliper Coating Reagent #3, 88mM EDTA, 5% DMSO]. Stopped assay plates were then read using the Caliper LabChip® LC3000 (which uses microfludics to measure a shift in mobility between fluorescent labelled peptide and the FGFR1 kinase—phosphorylated form of this peptide).

[3] = molecular target: T1, human IGF1R (Homo sapiens, UniProt P08069); assay: Inhibition of insulin-like growth factor-1 receptor phosphorylation in R+ cells; assay type: cell-based; details: 30 nM IGF1, read-out: IGF cell class
T1 construct: expressed in transfected cells; host or cells: R+ cells (R- mouse fibroblasts transfected with human IGF1R)
Protocol: This immunofluorescence end point cell assay measures the ability of a test compound to reduce the measured levels of IGF1R phosphorylation after IGF1 stimulation in R^+ cells. […] were derived by transfection of R^− mouse fibroblast cells with human IGF1R.
(+5% CO2) incubator for 30 minutes.
Following the compound treatment, the R^+ cells were stimulated with a final concentration of 30 nM IGF1 (Gropep 1M001) for 20 minutes at 37° C. […] Plates were incubated for 1 hour at room temperature. […] Additionally, in-house antibodies raised against phospho […] were also used at a suitable titre determined for each batch.
The plates were incubated at room temperature for one hour. […] After addition of 100 μl/well PBS the plates were sealed with a black seal.
The Green Fluorescent phospho IGF1R -associated signal in each well was measured using an Acumen Explorer HTS Reader (TTP Labtech Ltd., Cambridge). […] The instrument is a laser-scanning fluorescence microplate cytometer, which samples the well at regular intervals and uses threshold algorithms to identify all fluorescent intensities above the solution background without the need to generate and analyse an image. These fluorescent objects can be quantified and provide a measure of the phospho IGF1R levels in cells. Fluorescence dose response data obtained with each compound was exported into a suitable software package (such as Origin) to perform curve fitting analysis. Phospho-IGF1R levels in response to compound treatment versus stimulated and unstimulated controls were expressed as an IC50 value.

[4] = molecular target: T2, FGFR1 IIIc (Homo sapiens, UniProt P11362); assay: Cell based inhibition of transiently expressed FGFR1 IIIc phosphorylation via use of ECHO technology (Cos-1 cells); details: Cos-1 cells, phospho-FGFR1, ECHO dosing; upper bound of bin; read-out: IC50
T2 construct: host or cells: Cos-1
Protocol: This assay is designed to detect inhibitors of transiently expressed FGFR1 phosphorylation by antibody staining of fixed cells detected using ArrayScan technology.
To undertake the assay, Cos-1 cells were harvested at 90-95% confluence for cell transfection. For each 96-well plate, 24μl Lipofectamine 2000 was added to 809 ul OptiMEM and incubated at room temperature for 5 minutes. […] Equal volumes of DNA and Lipofectamine 2000 were combined (DNA: Lipid=1:1.2 ratio) and incubated at room temperature for 20 minutes.
The harvested Cos-1 cells are counted using a coulter counter and diluted further with 1% FCS/DMEM to 2.5×10^5 cells/ml. For each 96-well, 8.33 ml cells were required. […] 70 μl of media was aspirated from the assay plate using the Quadra before the plate was transferred onto the ECHO 550. […] Compound transfer to the assay plate on the ECHO 550 was at concentration ranges 1)10 μM, 2) 3 μM, 3) 1 μM, 4) 0.3 μM, 5) 0.1 μM, 6) […].
The plates were gently tapped to mix compound in with the cell media and left to incubate at 37° C. with 5% CO2 for 1 hour.
Media was removed from the wells using vacuum aspiration; cells were fixed by adding 50 μl of 100% methanol to each well and incubated at room temperature for 20 minutes.
The plates were read on an Arrayscan (Cellomics).

T2 sequence (P11362 22-822): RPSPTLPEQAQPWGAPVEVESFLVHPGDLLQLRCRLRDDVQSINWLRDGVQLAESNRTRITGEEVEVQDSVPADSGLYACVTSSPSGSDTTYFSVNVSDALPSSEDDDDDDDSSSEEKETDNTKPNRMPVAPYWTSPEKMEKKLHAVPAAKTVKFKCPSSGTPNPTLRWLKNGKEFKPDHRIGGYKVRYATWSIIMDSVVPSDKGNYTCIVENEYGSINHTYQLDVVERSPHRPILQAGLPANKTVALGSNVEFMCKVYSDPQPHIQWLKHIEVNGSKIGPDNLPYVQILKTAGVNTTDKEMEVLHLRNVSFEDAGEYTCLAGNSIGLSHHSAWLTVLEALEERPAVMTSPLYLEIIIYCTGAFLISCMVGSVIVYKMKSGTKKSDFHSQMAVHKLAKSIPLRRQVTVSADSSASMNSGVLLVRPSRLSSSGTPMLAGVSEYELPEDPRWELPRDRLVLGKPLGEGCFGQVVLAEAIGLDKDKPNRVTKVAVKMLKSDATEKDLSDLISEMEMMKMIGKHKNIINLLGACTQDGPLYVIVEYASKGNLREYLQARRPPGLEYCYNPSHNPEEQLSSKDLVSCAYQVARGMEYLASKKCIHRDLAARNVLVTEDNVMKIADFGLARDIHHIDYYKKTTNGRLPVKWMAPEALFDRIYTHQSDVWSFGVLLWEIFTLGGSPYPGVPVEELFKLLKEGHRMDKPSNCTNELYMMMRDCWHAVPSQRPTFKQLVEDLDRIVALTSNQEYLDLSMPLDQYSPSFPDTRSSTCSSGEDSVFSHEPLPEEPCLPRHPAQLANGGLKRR
FGFR1 kinase, sequence (P11362 22-822): as above
T1 sequence (P08069 31-1367): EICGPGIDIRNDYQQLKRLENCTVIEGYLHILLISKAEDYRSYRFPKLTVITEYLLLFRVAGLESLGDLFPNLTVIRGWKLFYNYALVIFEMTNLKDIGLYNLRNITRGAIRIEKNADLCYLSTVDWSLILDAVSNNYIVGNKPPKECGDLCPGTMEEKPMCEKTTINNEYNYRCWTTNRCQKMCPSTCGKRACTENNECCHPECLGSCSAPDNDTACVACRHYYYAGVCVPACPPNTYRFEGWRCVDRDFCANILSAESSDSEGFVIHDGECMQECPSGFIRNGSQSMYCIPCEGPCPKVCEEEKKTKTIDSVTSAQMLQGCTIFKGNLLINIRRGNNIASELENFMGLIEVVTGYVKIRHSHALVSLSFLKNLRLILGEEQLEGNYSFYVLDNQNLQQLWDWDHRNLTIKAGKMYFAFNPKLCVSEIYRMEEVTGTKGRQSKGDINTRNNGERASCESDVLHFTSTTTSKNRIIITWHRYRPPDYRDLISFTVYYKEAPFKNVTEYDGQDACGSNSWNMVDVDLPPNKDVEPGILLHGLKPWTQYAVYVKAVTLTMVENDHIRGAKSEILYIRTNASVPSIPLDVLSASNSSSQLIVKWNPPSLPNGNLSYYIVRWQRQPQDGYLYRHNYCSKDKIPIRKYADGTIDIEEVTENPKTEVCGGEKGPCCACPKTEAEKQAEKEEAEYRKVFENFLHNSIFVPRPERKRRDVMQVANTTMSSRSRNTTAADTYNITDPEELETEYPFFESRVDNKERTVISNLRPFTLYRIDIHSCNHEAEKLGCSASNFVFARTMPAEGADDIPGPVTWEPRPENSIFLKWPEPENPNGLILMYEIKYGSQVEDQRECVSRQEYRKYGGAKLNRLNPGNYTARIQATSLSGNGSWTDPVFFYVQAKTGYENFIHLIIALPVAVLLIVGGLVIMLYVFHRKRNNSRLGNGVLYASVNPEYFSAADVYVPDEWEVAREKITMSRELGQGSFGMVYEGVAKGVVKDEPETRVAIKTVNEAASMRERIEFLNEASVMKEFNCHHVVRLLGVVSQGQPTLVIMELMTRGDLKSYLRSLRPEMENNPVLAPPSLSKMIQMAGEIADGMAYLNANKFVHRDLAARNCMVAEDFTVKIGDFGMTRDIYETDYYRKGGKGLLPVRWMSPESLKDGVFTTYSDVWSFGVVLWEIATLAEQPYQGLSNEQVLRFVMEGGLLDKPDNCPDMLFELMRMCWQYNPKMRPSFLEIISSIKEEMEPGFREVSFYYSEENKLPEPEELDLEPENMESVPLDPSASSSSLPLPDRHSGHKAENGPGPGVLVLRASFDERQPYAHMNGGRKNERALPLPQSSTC

| IC50 [2] [µM] | IC50 [3] [µM] | IC50 [4] [µM] | Structure (SMILES) | IC50 [1] [µM] |
| --- | --- | --- | --- | --- |
| < 1 |  |  | COCCCc1cc(Nc2ccnc(NCc3cc(C4CCC4)no3)n2)n[nH]1 [Example 23, N-[(3-Cyclobutyl1,2-oxazol-5-yl)methyl]-N′-[5-(3-methoxypropyl)-1H-pyrazol-3-yl]pyrimidine-2,4-diamine] | < 1 |
| < 10 | > 10 | < 30 | NC(=O)c1cc(CNc2nccc(Nc3cc(COc4ccccc4)n[nH]3)n2)on1 [Example 36, 5-[[[4-[[5-(phenoxymethyl)-2H-pyrazol-3-yl]amino]pyrimidin-2-yl]amino]methyl]1,2-oxazole-3-carboxamide] |  |
| < 1 | > 10 | < 10 | NC(=O)c1cc(CNc2nccc(Nc3cc(CCc4ccccc4)n[nH]3)n2)on1 [Example 50, 5-[[[4-[(5-phenethyl-2H-pyrazol-3-yl)amino]pyrimidin-2-yl]amino]methyl]-1,2-oxazole-3-carboxamide] |  |
| < 1 |  |  | CC(C)Oc1cc(Nc2ccnc(NCc3cc(C(=O)N(C)C)no3)n2)[nH]n1 [Example 80, N,N-dimethyl-5-[[[4-[(5-propan-2-yloxy-2H-pyrazol-3-yl)amino]pyrimidin-2-yl]amino]methyl]1,2-oxazole-3-carboxamide] | < 10 |
| < 10 |  |  | CC(C)Oc1cc(Nc2ccnc(NCc3cc(-c4cncnc4)no3)n2)n[nH]1 [Example 81, N′-(5-propan-2-yloxy-2H-pyrazol-3-yl)-N-[(3-pyrimidin-5-yl1,2-oxazol-5-yl)methyl]pyrimidine-2,4-diamine] | < 10 |
| < 1 |  |  | CC(C)Oc1cc(Nc2ccnc(NCc3cc(C4CCOC4)no3)n2)[nH]n1 (centres unmarked) [Example 83, N-[[3-(oxolan-3-yl)1,2-oxazol-5-yl]methyl]-N′-(5-propan-2-yloxy-2H-pyrazol-3-yl)pyrimidine-2,4-diamine] | < 10 |
| < 10 |  |  | CC(C)Oc1cc(Nc2ccnc(NCc3cc(C4CCOCC4)no3)n2)[nH]n1 [Example 85, N-[[3-(oxan-4-yl)1,2-oxazol-5-yl]methyl]-N′-(5-propan-2-yloxy-2H-pyrazol-3-yl)pyrimidine-2,4-diamine] | < 10 |
| < 0.2 |  |  | CCOc1cc(Nc2ccnc(NCc3cc(C)no3)n2)n[nH]1 [Example 86, N′-(5-ethoxy-1H-pyrazol-3-yl)-N-[(3-methyl1,2-oxazol-5-yl)methyl]pyrimidine-2,4-diamine] | < 1 |

The next lines start with the molecule.

| Structure (SMILES) | IC50 [2] [µM] | IC50 [3] [µM] | IC50 [4] [µM] | IC50 [1] [µM] |
| --- | --- | --- | --- | --- |
| COc1ccc(CCc2cc(Nc3ccnc(NCc4cc(-c5ncccn5)no4)n3)n[nH]2)cc1 [Example 32, N′-[5-[2-(4-methoxyphenyl)ethyl]-2H-pyrazol-3-yl]-N-[(3-pyrimidin-2-yl-1,2-oxazol-5-yl)methyl]pyrimidine-2,4-diamine] | < 1 | 1 to 10 | < 1 |  |
| CCOC(=O)c1cc(CNc2nccc(Nc3cc(OC(C)C)n[nH]3)n2)on1 [Example 77, Ethyl 5-[[[4-[(5-propan-2-yloxy-2H-pyrazol-3-yl)amino]pyrimidin-2-yl]amino]methyl]1,2-oxazole-3-carboxylate] |  |  |  | < 1 |
| Cc1cc(CNc2nccc(Nc3cc(OCCOc4ccccc4)[nH]n3)n2)on1 [Example 101, N-[(3-methyl1,2-oxazol-5-yl)methyl]-N′-[5-(2-phenoxyethoxy)-2H-pyrazol-3-yl]pyrimidine-2,4-diamine] | < 1 | > 10 | < 1 |  |
| CNC(=O)c1cc(C)cc(CCc2cc(Nc3ccnc(NCc4cc(C)no4)n3)n[nH]2)c1 [Example 142, N,3-dimethyl-5-[2-[5-[[2-[(3-methyl-1,2-oxazol-5-yl)methylamino]pyrimidin-4-yl]amino]-1H-pyrazol-3-yl]ethyl]benzamide] | < 30 |  | < 10 |  |
| CNC(=O)c1cc(OC)cc(CCc2cc(Nc3ccnc(NCc4cc(C)no4)n3)n[nH]2)n1 [Example 143, 4-Methoxy-N-methyl-6-[2-[5-[[2-[(3-methyl-1,2-oxazol-5-yl)methylamino]pyrimidin-4-yl]amino]-1H-pyrazol-3-yl]ethyl]pyridine-2-carboxamide] | < 10 |  | < 30 |  |
